Literature values as cited in PubChem BioAssay AID1259409 (Chemical Carcinogenesis Research Information System (CCRIS), 2018).

System: rodent chemically induced tumor inhibition, incidence and multiplicity
Assay: CCRIS tumor inhibitor studies
Details: Species: MOUSE, Promoter: NONE USED

Compound: NCCCCNCCCN
- tumour outcome (control, treated, inhibition, significance) (Carcinogen: TRANS-5-AMINO-3-[2-(5-NITRO-2-FURYL)VINYL]-1,2,4-OXADIAZOLE;SQL8506, 28754-68-9, Carcinogen: TRANS-5-AMINO-3-[2-(5-NITRO-2-FURYL)VINYL]-1,2,4-OXADIAZOLE;SQL8506, 28754-68-9, Dose [Inhibitor]: 150 MG/KG 16 HR BEFORE THE 1ST CARCINOGEN DOSE FOLLOWED BY ADDITIONAL DOSES IMMEDIATELY BEFORE EACH DOSE OF CARCINOGEN (, Route [Inhibitor]: INTRAPERITONEAL, Strain/Sex: CD-1/FEMALE, Target Tissue: Type of Lesion: HEMATOPOIETIC SYSTEM: MYELOID LEUKEMIA, Dose [Carcinogen]: 1 G/KG 2/D FOR 5 D EVERY 4 WK FOR 3 COURSES OF TREATMENT): 7/137 (5%), 2/31 (6%), -20%, not calculated
- tumour outcome (control, treated, inhibition, significance) (Carcinogen: TRANS-5-AMINO-3-[2-(5-NITRO-2-FURYL)VINYL]-1,2,4-OXADIAZOLE;SQL8506, 28754-68-9, Carcinogen: TRANS-5-AMINO-3-[2-(5-NITRO-2-FURYL)VINYL]-1,2,4-OXADIAZOLE;SQL8506, 28754-68-9, Dose [Inhibitor]: 150 MG/KG 16 HR BEFORE THE 1ST CARCINOGEN DOSE FOLLOWED BY ADDITIONAL DOSES IMMEDIATELY BEFORE EACH DOSE OF CARCINOGEN (, Route [Inhibitor]: INTRAPERITONEAL, Strain/Sex: CD-1/FEMALE, Target Tissue: Type of Lesion: LYMPHOID TISSUE: NONTHYMIC LYMPHOMA, Dose [Carcinogen]: 1 G/KG 2/D FOR 5 D EVERY 4 WK FOR 3 COURSES OF TREATMENT): 8/137 (6%), 1/31 (3%), 50%, not calculated
- tumour outcome (control, treated, inhibition, significance) (Carcinogen: TRANS-5-AMINO-3-[2-(5-NITRO-2-FURYL)VINYL]-1,2,4-OXADIAZOLE;SQL8506, 28754-68-9, Carcinogen: TRANS-5-AMINO-3-[2-(5-NITRO-2-FURYL)VINYL]-1,2,4-OXADIAZOLE;SQL8506, 28754-68-9, Dose [Inhibitor]: 150 MG/KG 16 HR BEFORE THE 1ST CARCINOGEN DOSE FOLLOWED BY ADDITIONAL DOSES IMMEDIATELY BEFORE EACH DOSE OF CARCINOGEN (, Route [Inhibitor]: INTRAPERITONEAL, Strain/Sex: CD-1/FEMALE, Target Tissue: Type of Lesion: LYMPHOID TISSUE: THYMIC LYMPHOMA, Dose [Carcinogen]: 1 G/KG 2/D FOR 5 D EVERY 4 WK FOR 3 COURSES OF TREATMENT): 22/137 (16%), 4/31 (13%), 19%, not calculated
- tumour outcome (control, treated, inhibition, significance) (Carcinogen: TRANS-5-AMINO-3-[2-(5-NITRO-2-FURYL)VINYL]-1,2,4-OXADIAZOLE;SQL8506, 28754-68-9, Carcinogen: TRANS-5-AMINO-3-[2-(5-NITRO-2-FURYL)VINYL]-1,2,4-OXADIAZOLE;SQL8506, 28754-68-9, Dose [Inhibitor]: 150 MG/KG 16 HR BEFORE THE 1ST CARCINOGEN DOSE FOLLOWED BY ADDITIONAL DOSES IMMEDIATELY BEFORE EACH DOSE OF CARCINOGEN (, Route [Inhibitor]: INTRAPERITONEAL, Strain/Sex: CD-1/FEMALE, Target Tissue: Type of Lesion: STOMACH: SQUAMOUS SARCOMA, Dose [Carcinogen]: 1 G/KG 2/D FOR 5 D EVERY 4 WK FOR 3 COURSES OF TREATMENT): 60/137 (44%), 7/31 (23%), 48%, not calculated

Compound: CC1=C(/C=C/C(C)=C/C=C/C(C)=C/C(=O)NCCCCO)C(C)(C)CCC1
- tumour outcome (control, treated, inhibition, significance) (Carcinogen: N-BUTYL-N-(4-HYDROXYBUTYL)NITROSAMINE, 3817-11-6, Dose [Inhibitor]: 1.5 MMOL/KG DIET DAILY FOR 133 D STARTING ONE WK AFTER THE FINAL CARCINOGEN DOSE (STUDY DURATION: 190 D), Route [Inhibitor]: ORAL, Strain/Sex: BDF/MALE, Target Tissue: Type of Lesion: URINARY BLADDER: TRANSITIONAL CELL CARCINOMA, Dose [Carcinogen]: 7.5 MG 1/WK FOR 8 WK): 21/100 (21%), 21/100 (21%), 0%, not significant
- tumour outcome (control, treated, inhibition, significance) (Carcinogen: N-BUTYL-N-(4-HYDROXYBUTYL)NITROSAMINE, 3817-11-6, Dose [Inhibitor]: 1.5 MMOL/KG IN DIET FOR 133 D STARTING 1 WK AFTER LAST CARCINOGEN DOSE (STUDY DURATION: 190 D), Route [Inhibitor]: ORAL, Strain/Sex: DBF1/MALE, Target Tissue: Type of Lesion: URINARY BLADDER: TRANSITIONAL CELL CARCINOMA, Dose [Carcinogen]: 7.5 MG 1/WK FOR 8 WK): 21/100 (21%), 21/100 (21%), 0%, not significant

Compound: CC1=C(/C=C/C(C)=C/C=C/C(C)=C/C(=O)Nc2nn[nH]n2)C(C)(C)CCC1
- tumour outcome (control, treated, inhibition, significance) (Carcinogen: N-BUTYL-N-(4-HYDROXYBUTYL)NITROSAMINE, 3817-11-6, Dose [Inhibitor]: 1.5 MMOL/KG DIET DAILY FOR 159 D STARTING 1 WK AFTER THE FINAL CARCINOGEN DOSE (STUDY DURATION: 216 D), Route [Inhibitor]: ORAL, Strain/Sex: BDF/MALE, Target Tissue: Type of Lesion: URINARY BLADDER: TRANSITIONAL CELL CARCINOMA, Dose [Carcinogen]: 7.5 MG 1/WK FOR 8 WK): 29/98 (30%), 15/97 (16%), 47%, p<0.05
- tumour outcome (control, treated, inhibition, significance) (Carcinogen: N-BUTYL-N-(4-HYDROXYBUTYL)NITROSAMINE, 3817-11-6, Dose [Inhibitor]: 1.5 MMOL/KG/D IN DIET FOR 159 D STARTING 1 WK POST CARCINOGEN TREATMENT (STUDY DURATION: 216 D), Route [Inhibitor]: ORAL, Strain/Sex: BDF/MALE, Target Tissue: Type of Lesion: URINARY BLADDER: TRANSITIONAL CELL CARCINOMA, Dose [Carcinogen]: 7.5 MG 1/WK FOR 8 WK): 29/98 (30%), 15/97 (16%), 47%, p<0.05
